Laboratory results taken from ChEMBL document CHEMBL1146398, “Cardenolides from the methanolic extract of Nerium oleander leaves possessing central nervous system depressant activity in mice” (J Nat Prod, 1997).
The source made the active and inactive calls. The calls are words filed in the database; no cut-off is given here.

Assays:
Assay type in all cases: functional, organism-based
[1] = tested on: Mus musculus; experiment: Central nervous system depression activity in mouse assessed as decrease in locomotor activity at 25 mg/kg, ip; design: dose 25 mg/kg
[2] = tested on: Mus musculus; experiment: Central nervous system depression activity in mouse assessed as decrease in locomotor activity at 50 mg/kg, ip; design: dose 50 mg/kg
[3] = tested on: Mus musculus; experiment: Central nervous system depression activity in mouse assessed as decrease in touch response at 25 mg/kg, ip; design: dose 25 mg/kg
[4] = tested on: Mus musculus; experiment: Central nervous system depression activity in mouse assessed as ptosis at 25 mg/kg, ip; design: dose 25 mg/kg
[5] = tested on: Mus musculus; experiment: Central nervous system depression activity in mouse assessed as staggering gait at 25 mg/kg, ip; design: dose 25 mg/kg
[6] = tested on: Mus musculus; experiment: Central nervous system depression activity in mouse assessed as passivity at 25 mg/kg, ip; design: dose 25 mg/kg
[7] = tested on: Mus musculus; experiment: Central nervous system depression activity in mouse assessed as staggering gait at 25 mg/kg, ip after 30 mins; design: dose 25 mg/kg
[8] = tested on: Mus musculus; experiment: Central nervous system depression activity in mouse assessed as fast respiration at 50 mg/kg, ip after 40 mins; design: dose 50 mg/kg
[9] = tested on: Mus musculus; experiment: Central nervous system depression activity in mouse assessed as abduction of limbs at 50 mg/kg, ip after 60 mins; design: dose 50 mg/kg
[10] = tested on: Mus musculus; experiment: Central nervous system depression activity in mouse assessed as tremors on movement at 50 mg/kg, ip after 60 mins; design: dose 50 mg/kg
[11] = tested on: Mus musculus; experiment: Central nervous system depression activity in mouse assessed as induction of passivity at 50 mg/kg, ip after 60 mins; design: dose 50 mg/kg
[12] = tested on: Mus musculus; experiment: Central nervous system depression activity in mouse assessed as decrease in body and limb tone at 50 mg/kg, ip after 60 mins; design: dose 50 mg/kg
[13] = tested on: Mus musculus; experiment: Central nervous system depression activity in mouse assessed as decrease in touch response at 50 mg/kg, ip; design: dose 50 mg/kg
[14] = tested on: Mus musculus; experiment: Central nervous system depression activity in mouse assessed as staggering gait at 50 mg/kg, ip after 40 mins; design: dose 50 mg/kg

Row | SMILES | Activity [1] | Activity [2] | Activity [3] | Activity [4] | Activity [5] | Activity [6] | Activity [7] | Activity [8] | Activity [9] | Activity [10] | Activity [11] | Activity [12] | Activity [13] | Activity [14]
1 | CO[C@H]1[C@@H](O)[C@@H](C)O[C@@H](O[C@H]2CC[C@@]3(C)[C@H](CC[C@@H]4[C@@H]3CC[C@]3(C)[C@@H](C5=CC(=O)OC5)CC[C@]43O)C2)[C@@H]1O | Active | Active | Active | Active | Active | Active |  |  |  |  |  |  |  | 
2 | CO[C@H]1[C@@H](O)[C@@H](C)O[C@@H](O[C@H]2CC[C@@]3(C)[C@H](CC[C@@H]4[C@@H]3CC[C@]3(C)[C@@H](C5=CC(=O)OC5)[C@@H](OC(C)=O)C[C@]43O)C2)[C@@H]1O |  | Active | inactive |  |  |  | Active | Active | Active | Active | Active | Active |  | 
3 | CO[C@H]1[C@H](O[C@H]2CC[C@@]3(C)[C@H](CC[C@@H]4[C@@H]3CC[C@]3(C)C(C5=CC(=O)OC5)=CC[C@]43O)C2)O[C@H](C)[C@H](O)[C@@H]1OC | Active | Active | inactive |  |  |  |  |  |  |  |  |  | Active | Active
